The record followed here is PubChem BioAssay (NCI).

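In this assay, cells in 96-well plates receive the compound at five concentrations for 48 hours. Endpoints are linearly interpolated between the surrounding concentrations. GI50 is the concentration that inhibits growth by half. TGI marks complete inhibition of growth.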

Among the test systems are NCI-H460 lung; COLO 205 colon; IGROV1 ovarian; MDA-MB-231 breast; RPMI-8226 leukemia; OVCAR-3 ovarian; NCI-H226 lung; HCC-2998 colon; NCI/ADR-RES ovarian; HL-60(TB) leukemia.
What all share (experiment): DTP human tumour cell line panel, 48 h

The term GI50 denotes the concentration at which growth is held to half of that of the control. For orientation: TGI means the concentration giving total growth inhibition. Lower therefore signals greater sensitivity of the cells. Turning to `CCOC(=O)c1cc2c(n1Cc1cccc(OC)c1)-c1oncc1CC2`, the GI50 with NCI-H460 lung is 0.511 µM; with COLO 205 colon, 0.508 µM; in the test with IGROV1 ovarian it was 0.78 µM; in the test on MDA-MB-231 breast, 4.87 µM; in the test with RPMI-8226 leukemia, 3.52 µM; in the test on OVCAR-3 ovarian, 0.38 µM. Also, the GI50 is 7.46 µM in the test on NCI-H226 lung, 1.94 µM with HCC-2998 colon, 0.302 µM with NCI/ADR-RES ovarian and 0.297 µM with HL-60(TB) leukemia. The concentration for total growth inhibition (TGI) was over 100 µM in the test with NCI-H460 lung; 3.99 µM in the test on COLO 205 colon; over 100 µM with IGROV1 ovarian; over 100 µM in the test on MDA-MB-231 breast; over 100 µM in the test with RPMI-8226 leukemia; 2.66 µM in the test on OVCAR-3 ovarian. In addition, the TGI is over 100 µM in the test with NCI-H226 lung, 29.6 µM in the test with HCC-2998 colon, 5.14 µM in the test on NCI/ADR-RES ovarian and 1.63 µM in the test on HL-60(TB) leukemia.
Consider `CN(NC(=O)/C(=C/c1ccc(O)cc1)NC(=O)c1ccccc1)c1ccnc2cc(Cl)ccc12`, for which the TGI with NCI-H460 lung was found to be 31.2 µM; with COLO 205 colon it was 36.2 µM; in the test on IGROV1 ovarian, 34.1 µM; with MDA-MB-231 breast it was 40.4 µM; in the test with RPMI-8226 leukemia it was 40.7 µM; in the test with OVCAR-3 ovarian it was 31.2 µM. Further, the TGI with NCI-H226 lung is 32.7 µM; with HCC-2998 colon, 33.3 µM; in the test with NCI/ADR-RES ovarian, 38 µM; with HL-60(TB) leukemia, 5.84 µM.
For the compound `COc1ccc(NC(=O)c2ccc(NC3=C(Cl)C(=O)N(Cc4ccccc4)C3=O)cc2)cc1`, the GI50 with NCI-H460 lung was 53.1 µM; with COLO 205 colon it was 10.9 µM; with IGROV1 ovarian it was 1.5 µM; in the test on MDA-MB-231 breast, 11.9 µM; in the test on RPMI-8226 leukemia, 2.38 µM; with OVCAR-3 ovarian, 2.11 µM. In addition, the GI50 in the test with NCI-H226 lung is 14.5 µM; in the test on HCC-2998 colon, 15.6 µM; in the test on NCI/ADR-RES ovarian, 11.9 µM; with HL-60(TB) leukemia, 2.16 µM. For the same compound, the TGI with NCI-H460 lung is over 100 µM; in the test on COLO 205 colon, over 100 µM; in the test on IGROV1 ovarian, 3.93 µM; in the test on MDA-MB-231 breast, 26.2 µM; in the test on RPMI-8226 leukemia, 8.06 µM; in the test on OVCAR-3 ovarian, 6.12 µM. Also, the results for the TGI in the test on NCI-H226 lung, with HCC-2998 colon and in the test with NCI/ADR-RES ovarian were 35.9 µM, 31.1 µM and 38.7 µM, respectively.
Turning to `CCN(CC)CCn1c(=N)n(CC(O)c2ccc(Cl)c(Cl)c2)c2ccccc21` (stereo not drawn), the GI50 with NCI-H460 lung was 4.97 µM; in the test on COLO 205 colon, 2.05 µM; in the test with IGROV1 ovarian it was 5.87 µM; in the test with MDA-MB-231 breast, 5.16 µM; with RPMI-8226 leukemia, 2.72 µM; in the test with OVCAR-3 ovarian, 11.5 µM. For the same compound, the GI50 is 17 µM in the test on NCI-H226 lung, 2.34 µM with HCC-2998 colon, 17.7 µM with NCI/ADR-RES ovarian and 5.12 µM with HL-60(TB) leukemia. Moreover, the total growth inhibition concentration (TGI) in the test with NCI-H460 lung was 17.9 µM; in the test on COLO 205 colon, 3.96 µM; with IGROV1 ovarian, 20.6 µM; with MDA-MB-231 breast it was 20.2 µM; in the test on RPMI-8226 leukemia, 8.02 µM; in the test on OVCAR-3 ovarian it was 24 µM. Moreover, the TGI with NCI-H226 lung is 36.9 µM; in the test with HCC-2998 colon, 5.3 µM; in the test on NCI/ADR-RES ovarian, 36.8 µM; in the test on HL-60(TB) leukemia, 22.2 µM.
For the compound `Cn1cc(-c2ccc3cc(-c4ccc(CC(=O)Nc5cc(C(C)(C)C)nn5C)cc4)cnc3c2)cn1`, the GI50 was 0.165 µM in the test with NCI-H460 lung; 0.441 µM in the test on COLO 205 colon; 0.063 µM in the test with IGROV1 ovarian; 0.317 µM in the test on MDA-MB-231 breast; 0.254 µM with RPMI-8226 leukemia; 0.336 µM in the test with OVCAR-3 ovarian. Moreover, the 50% growth inhibitory concentration (GI50) with NCI-H226 lung is 0.317 µM; in the test with HCC-2998 colon it was 0.443 µM; with NCI/ADR-RES ovarian, 0.355 µM; in the test on HL-60(TB) leukemia it was 0.314 µM. Also, the TGI in the test on NCI-H460 lung was over 100 µM; in the test on COLO 205 colon, over 100 µM; in the test with IGROV1 ovarian it was over 100 µM; in the test on MDA-MB-231 breast, over 100 µM; in the test with RPMI-8226 leukemia it was 1.78 µM; in the test on OVCAR-3 ovarian, over 100 µM. The TGI with NCI-H226 lung, in the test on HCC-2998 colon and in the test on NCI/ADR-RES ovarian was over 100 µM in each case.
In the case of `COc1ccc(C(=O)CC2(O)C(=O)Nc3c(Cl)ccc(Cl)c32)cc1` (stereo not drawn), the GI50 with NCI-H460 lung was 0.97 µM; in the test on COLO 205 colon it was 0.954 µM; in the test on IGROV1 ovarian it was 4.95 µM; in the test on MDA-MB-231 breast, 4.27 µM; with RPMI-8226 leukemia, 2.64 µM; in the test with OVCAR-3 ovarian, 0.701 µM. In addition, the GI50 in the test with NCI-H226 lung was 30.6 µM; in the test on HCC-2998 colon, 5.24 µM; in the test with NCI/ADR-RES ovarian it was 0.715 µM; with HL-60(TB) leukemia, 0.384 µM. Further, the TGI was 40.4 µM with NCI-H460 lung; 5.3 µM with COLO 205 colon; over 100 µM in the test with IGROV1 ovarian; over 92.4 µM with MDA-MB-231 breast; 15.5 µM in the test on RPMI-8226 leukemia; 3.75 µM in the test on OVCAR-3 ovarian. In addition, the TGI in the test with NCI-H226 lung was over 100 µM; with HCC-2998 colon, over 54 µM; in the test on NCI/ADR-RES ovarian, 19.6 µM; in the test with HL-60(TB) leukemia it was 3.51 µM.
As for `COc1cc([C@@H]2c3cc4c(cc3[C@H](OC3OC5COC(c6ccccc6)OC5C(O)C3O)[C@H]3COC(=O)[C@H]23)OCO4)cc(OC)c1OC` (stereo partly drawn), the GI50 is 0.282 µM in the test with NCI-H460 lung; 0.28 µM in the test with COLO 205 colon; 0.337 µM in the test with IGROV1 ovarian; 0.422 µM in the test with MDA-MB-231 breast; 0.263 µM in the test with RPMI-8226 leukemia; 0.282 µM in the test with OVCAR-3 ovarian. Further, the GI50 in the test with NCI-H226 lung is 4.58 µM; in the test with HCC-2998 colon, 0.367 µM; in the test with NCI/ADR-RES ovarian, 0.4 µM; in the test on HL-60(TB) leukemia it was 0.342 µM. Further, the TGI was 2.92 µM with NCI-H460 lung; 0.935 µM in the test on COLO 205 colon; 1.34 µM in the test with IGROV1 ovarian; 29 µM in the test on MDA-MB-231 breast; 1 µM with RPMI-8226 leukemia; 0.711 µM in the test on OVCAR-3 ovarian. Besides, the TGI turned out to be 37.6 µM with NCI-H226 lung, 4.7 µM in the test on HCC-2998 colon, 3 µM in the test on NCI/ADR-RES ovarian and 1.46 µM in the test with HL-60(TB) leukemia.
Regarding `COC1CC(OC2OC(CO)C(O)C(O)C2O)/C(=C\C#N)C(O)C1OC` (stereo not drawn), the TGI in the test on NCI-H460 lung, with COLO 205 colon, in the test with IGROV1 ovarian, in the test with MDA-MB-231 breast, in the test on RPMI-8226 leukemia and in the test on OVCAR-3 ovarian was over 100 µM throughout. In addition, the TGI in the test with NCI-H226 lung, with HCC-2998 colon, in the test on NCI/ADR-RES ovarian and in the test with HL-60(TB) leukemia was over 100 µM each time.
